Results as given in patent US20140142094A1, “KINASE INHIBITORS” (ICAHN SCHOOL OF MEDICINE AT MOUNT SINAI, priority 2011, published 2014).

Legend:
ABL2/ARG = target: T1, ABL2/ARG (Homo sapiens, UniProt P42684); test: Kinase inhibition assay (Reaction Biology); format: biochemical; conditions: 10 μM ATP; 5-dose IC50 mode
T1 construct: purchased Reaction Biology Corporation
Protocol: (§1) Kinase assays were performed at Reaction Biology Corporation. To a freshly prepared buffer solution was added the target kinase at a concentration of 20 μM. The contents were mixed gently, and then compound 1b dissolved in DMSO was added to the reaction mixture in the appropriate concentration. The mixture was incubated at room temperature for 30 min. prior to addition of ATP to initiate the reaction. Compound 1b was tested in a 5-dose IC50 mode with 10-fold serial dilutions starting at 10 μM. Staurosporine was used as a control compound in a 10-dose IC50 mode with 3-fold serial dilutions starting at 20 μM. Reaction was carried out at 10 μM ATP concentration.

RPIK2 = target: T2, RPIK2 (Homo sapiens, UniProt O43353); test: Kinase inhibition assay (Reaction Biology); format: biochemical; conditions: 10 μM ATP; 5-dose IC50 mode
T2 construct: purchased Reaction Biology Corporation
Protocol: as §1

ABL1 = target: T3, ABL1 (Homo sapiens, UniProt P00519); test: Kinase inhibition assay (Reaction Biology); format: biochemical; conditions: 10 μM ATP; 5-dose IC50 mode
T3 construct: purchased Reaction Biology Corporation
Protocol: as §1

PI3K-δ = target: T4, PI3K-δ (Homo sapiens, UniProt O00329); test: Kinase inhibition assay (Reaction Biology); format: biochemical; conditions: Table 2; 10 μM ATP; 5-dose IC50 mode
T4 construct: purchased Reaction Biology Corporation
Protocol: as §1

PI3K-α = target: T5, PI3K-α (Homo sapiens, UniProt P42336); test: Kinase inhibition assay (Reaction Biology); format: biochemical; conditions: Table 2; 10 μM ATP; 5-dose IC50 mode
T5 construct: purchased Reaction Biology Corporation
Protocol: as §1

FGR = target: T6, FGR (Homo sapiens, UniProt P09769); test: Kinase inhibition assay (Reaction Biology); format: biochemical; conditions: 10 μM ATP; 5-dose IC50 mode
T6 construct: purchased Reaction Biology Corporation
Protocol: as §1

ABL1 (M351T) = target: T7, ABL1 (M351T) (Homo sapiens, UniProt P00519, M351T); test: Inhibition of ABL mutants; format: biochemical; conditions: 10 μM ATP; 5-dose IC50 mode
T7 construct: purchased Reaction Biology Corporation
Protocol: as §1

ABL1 (Q252H) = target: T8, ABL1 (Q252H) (Homo sapiens, UniProt P00519, Q252H); test: Inhibition of ABL mutants; format: biochemical; conditions: 10 μM ATP; 5-dose IC50 mode
T8 construct: purchased Reaction Biology Corporation
Protocol: as §1

ABL1 (E255K) = target: T9, ABL1 (E255K) (Homo sapiens, UniProt P00519, E255K); test: Inhibition of ABL mutants; format: biochemical; conditions: 10 μM ATP; 5-dose IC50 mode
T9 construct: purchased Reaction Biology Corporation
Protocol: as §1

ABL1 (H396P) = target: T10, ABL1 (H396P) (Homo sapiens, UniProt P00519, H396P); test: Inhibition of ABL mutants; format: biochemical; conditions: 10 μM ATP; 5-dose IC50 mode
T10 construct: purchased Reaction Biology Corporation
Protocol: as §1

ABL1 (G250E) = target: T11, ABL1 (G250E) (Homo sapiens, UniProt P00519, G250E); test: Inhibition of ABL mutants; format: biochemical; conditions: 10 μM ATP; 5-dose IC50 mode
T11 construct: purchased Reaction Biology Corporation
Protocol: as §1

ABL1 (Y253F) = target: T12, ABL1 (Y253F) (Homo sapiens, UniProt P00519, Y253F); test: Inhibition of ABL mutants; format: biochemical; conditions: 10 μM ATP; 5-dose IC50 mode
T12 construct: purchased Reaction Biology Corporation
Protocol: as §1

ABL1 (T315I) = target: T13, ABL1 (T315I) (Homo sapiens, UniProt P00519, T315I); test: Inhibition of ABL mutants; format: biochemical; conditions: 10 μM ATP; 5-dose IC50 mode
T13 construct: purchased Reaction Biology Corporation
Protocol: as §1

DU145 (prostate cancer) = test: Cytotoxicity on DU145 cancer cell line; format: cell-based; conditions: Homo sapiens, DU-145; DU145 cells, 96 h treatment
Protocol: (§2) The effect of the compounds described herein on tumor cells was determined by the assay described by Latham et al., Oncogene 12:827-837 (1996). Tumor cells K562 (chronic myelogenous leukemia; leukemia cell line +ve for Bcr-Abl) or DU145 (prostate cancer) were plated in 12-well dishes at a cell density of 2.5×10^4 cells per well. The plated cells were treated 24h. later with a DMSO solution of a compound as described herein at multiple concentrations ranging from 0.01 μM to 100 μM. The plates were examined 96 h. later under an inverted microscope, Olympus CK-2 using a 10× objective, and compound activity was noted by physical observation. When necessary, the total number of viable cells was determined by trypsinizing the wells and counting the number of viable cells, as determined by trypan blue exclusion, using a hemacytometer.

[1] = tested on: K562 (chronic myelogenous leukemia; leukemia cell line +ve for Bcr-Abl); test: Cytotoxicity on K562 cancer cell line; format: cell-based; conditions: Homo sapiens; K562 cells, 96 h treatment
Protocol: as §2

PIK3-α = target: T14, PIK3-α (Homo sapiens, UniProt P42336); test: Inhibition of PI3K kinases; format: biochemical; conditions: Table 4; 10 μM ATP; 5-dose IC50 mode
T14 construct: purchased Reaction Biology Corporation
Protocol: as §1, with “were mixed gently and then” for “were mixed gently, and then”, “at 20 µM. Reaction was” for “at 20 μM. Reaction was”

PIK3-β = target: T15, PIK3-β (Homo sapiens, UniProt P42338); test: Inhibition of PI3K kinases; format: biochemical; conditions: Table 4; 10 μM ATP; 5-dose IC50 mode
T15 construct: purchased Reaction Biology Corporation
Protocol: as §1, with “were mixed gently and then” for “were mixed gently, and then”, “at 20 µM. Reaction was” for “at 20 μM. Reaction was”

PIK3-γ = target: T16, PIK3-γ (Homo sapiens, UniProt P48736); test: Inhibition of PI3K kinases; format: biochemical; conditions: Table 4; 10 μM ATP; 5-dose IC50 mode
T16 construct: purchased Reaction Biology Corporation
Protocol: as §1, with “were mixed gently and then” for “were mixed gently, and then”, “at 20 µM. Reaction was” for “at 20 μM. Reaction was”

PIK3-δ = target: T17, PIK3-δ (Homo sapiens, UniProt O00329); test: Inhibition of PI3K kinases; format: biochemical; conditions: Table 4; 10 μM ATP; 5-dose IC50 mode
T17 construct: purchased Reaction Biology Corporation
Protocol: as §1, with “were mixed gently and then” for “were mixed gently, and then”, “at 20 µM. Reaction was” for “at 20 μM. Reaction was”

T4 sequence (O00329 whole entry): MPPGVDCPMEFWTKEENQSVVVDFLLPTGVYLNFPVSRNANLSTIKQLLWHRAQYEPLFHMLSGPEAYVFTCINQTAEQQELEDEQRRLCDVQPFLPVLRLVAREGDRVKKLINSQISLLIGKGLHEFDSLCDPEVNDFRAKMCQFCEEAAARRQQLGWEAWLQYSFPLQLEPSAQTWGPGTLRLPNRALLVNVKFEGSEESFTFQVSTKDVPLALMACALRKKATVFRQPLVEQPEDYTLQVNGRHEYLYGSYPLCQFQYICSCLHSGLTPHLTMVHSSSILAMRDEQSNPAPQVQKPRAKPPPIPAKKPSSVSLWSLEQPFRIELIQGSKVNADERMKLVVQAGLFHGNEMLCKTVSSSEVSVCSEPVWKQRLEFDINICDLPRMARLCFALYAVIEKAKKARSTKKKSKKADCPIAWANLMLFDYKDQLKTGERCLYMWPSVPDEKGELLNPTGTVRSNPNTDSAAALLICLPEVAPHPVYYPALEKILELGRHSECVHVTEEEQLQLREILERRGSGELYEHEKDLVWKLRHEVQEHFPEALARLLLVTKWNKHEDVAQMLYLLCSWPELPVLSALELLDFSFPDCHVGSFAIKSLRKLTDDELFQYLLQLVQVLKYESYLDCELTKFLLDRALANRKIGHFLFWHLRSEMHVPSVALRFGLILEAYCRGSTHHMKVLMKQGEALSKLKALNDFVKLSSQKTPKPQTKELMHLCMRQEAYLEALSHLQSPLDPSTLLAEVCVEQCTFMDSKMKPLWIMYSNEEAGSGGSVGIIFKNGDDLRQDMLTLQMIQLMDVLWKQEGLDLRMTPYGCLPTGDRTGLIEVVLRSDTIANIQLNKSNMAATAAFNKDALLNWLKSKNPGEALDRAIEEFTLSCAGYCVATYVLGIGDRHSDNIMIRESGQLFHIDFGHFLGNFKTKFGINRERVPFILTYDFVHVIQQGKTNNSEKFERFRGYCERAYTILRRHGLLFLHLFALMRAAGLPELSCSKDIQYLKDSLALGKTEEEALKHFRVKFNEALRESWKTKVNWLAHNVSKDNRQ
T4 sequence (P27986 whole entry partner): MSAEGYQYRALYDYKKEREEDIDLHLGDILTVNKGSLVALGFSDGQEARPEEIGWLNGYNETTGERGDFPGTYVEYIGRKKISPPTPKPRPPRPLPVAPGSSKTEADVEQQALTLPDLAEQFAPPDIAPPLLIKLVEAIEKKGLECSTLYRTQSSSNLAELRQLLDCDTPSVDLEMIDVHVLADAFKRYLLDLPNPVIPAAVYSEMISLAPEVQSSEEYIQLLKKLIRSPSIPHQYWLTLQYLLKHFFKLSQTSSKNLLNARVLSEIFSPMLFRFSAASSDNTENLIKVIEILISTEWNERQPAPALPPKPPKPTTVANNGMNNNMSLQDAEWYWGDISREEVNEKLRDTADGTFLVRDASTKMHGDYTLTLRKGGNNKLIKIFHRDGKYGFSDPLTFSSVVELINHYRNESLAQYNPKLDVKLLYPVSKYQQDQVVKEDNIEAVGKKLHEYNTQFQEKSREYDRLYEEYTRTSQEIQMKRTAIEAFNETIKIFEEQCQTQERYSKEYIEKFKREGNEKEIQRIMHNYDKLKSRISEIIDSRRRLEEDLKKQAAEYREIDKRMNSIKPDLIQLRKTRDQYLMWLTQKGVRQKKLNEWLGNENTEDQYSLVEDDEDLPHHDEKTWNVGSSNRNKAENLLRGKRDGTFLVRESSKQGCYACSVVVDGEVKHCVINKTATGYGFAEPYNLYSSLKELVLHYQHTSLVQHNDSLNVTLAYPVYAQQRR
T17 sequence (O00329 whole entry): as the sequence (O00329 whole entry) above
T17 sequence (P27986 whole entry partner): as the sequence (P27986 whole entry partner) above
T2 sequence (O43353 whole entry): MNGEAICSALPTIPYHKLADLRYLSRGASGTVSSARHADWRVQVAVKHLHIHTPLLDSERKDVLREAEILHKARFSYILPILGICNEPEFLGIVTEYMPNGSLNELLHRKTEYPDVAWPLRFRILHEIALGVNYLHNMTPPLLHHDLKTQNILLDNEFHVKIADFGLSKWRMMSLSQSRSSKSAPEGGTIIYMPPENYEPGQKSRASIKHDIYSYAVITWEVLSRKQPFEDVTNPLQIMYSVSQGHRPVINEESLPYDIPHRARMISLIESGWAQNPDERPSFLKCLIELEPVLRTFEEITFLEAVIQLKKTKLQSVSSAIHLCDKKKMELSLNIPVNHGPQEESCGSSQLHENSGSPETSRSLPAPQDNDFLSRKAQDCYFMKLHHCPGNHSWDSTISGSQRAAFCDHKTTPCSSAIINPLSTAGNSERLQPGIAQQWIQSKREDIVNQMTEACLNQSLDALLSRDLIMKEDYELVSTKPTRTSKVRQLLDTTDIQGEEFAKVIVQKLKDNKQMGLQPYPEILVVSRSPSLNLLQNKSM
T14 sequence (P42336 whole entry): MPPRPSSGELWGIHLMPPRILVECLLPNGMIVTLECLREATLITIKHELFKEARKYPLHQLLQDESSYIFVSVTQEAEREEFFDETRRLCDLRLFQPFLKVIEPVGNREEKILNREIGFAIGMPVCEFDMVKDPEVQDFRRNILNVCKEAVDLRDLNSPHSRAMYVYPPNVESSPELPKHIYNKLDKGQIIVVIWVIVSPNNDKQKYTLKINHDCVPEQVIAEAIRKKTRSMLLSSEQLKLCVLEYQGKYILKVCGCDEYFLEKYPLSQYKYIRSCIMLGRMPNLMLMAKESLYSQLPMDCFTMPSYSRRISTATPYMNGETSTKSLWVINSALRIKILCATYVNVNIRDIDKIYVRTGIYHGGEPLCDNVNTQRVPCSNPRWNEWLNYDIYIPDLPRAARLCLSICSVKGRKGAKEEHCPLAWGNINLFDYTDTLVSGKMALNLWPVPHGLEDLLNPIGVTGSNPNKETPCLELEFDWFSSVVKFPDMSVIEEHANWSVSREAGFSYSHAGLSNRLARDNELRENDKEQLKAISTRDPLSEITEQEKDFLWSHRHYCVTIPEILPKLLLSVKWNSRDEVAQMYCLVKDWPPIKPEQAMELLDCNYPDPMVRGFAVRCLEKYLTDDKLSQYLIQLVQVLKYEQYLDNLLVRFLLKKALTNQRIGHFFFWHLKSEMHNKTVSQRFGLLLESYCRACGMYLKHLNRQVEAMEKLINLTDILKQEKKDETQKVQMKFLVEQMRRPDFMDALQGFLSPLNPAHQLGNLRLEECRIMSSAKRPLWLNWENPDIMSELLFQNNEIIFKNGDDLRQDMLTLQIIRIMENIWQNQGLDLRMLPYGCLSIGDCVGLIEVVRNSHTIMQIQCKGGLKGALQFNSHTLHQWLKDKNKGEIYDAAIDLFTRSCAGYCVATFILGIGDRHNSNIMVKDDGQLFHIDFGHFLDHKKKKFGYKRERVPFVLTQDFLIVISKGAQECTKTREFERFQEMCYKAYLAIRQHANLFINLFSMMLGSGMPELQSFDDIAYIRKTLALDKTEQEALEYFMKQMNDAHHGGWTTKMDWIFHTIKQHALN
T14 sequence (P27986 whole entry partner): as the sequence (P27986 whole entry partner) above
T5 sequence (P42336 whole entry): as the sequence (P42336 whole entry) above
T5 sequence (P27986 whole entry partner): as the sequence (P27986 whole entry partner) above
T6 sequence (P09769 whole entry): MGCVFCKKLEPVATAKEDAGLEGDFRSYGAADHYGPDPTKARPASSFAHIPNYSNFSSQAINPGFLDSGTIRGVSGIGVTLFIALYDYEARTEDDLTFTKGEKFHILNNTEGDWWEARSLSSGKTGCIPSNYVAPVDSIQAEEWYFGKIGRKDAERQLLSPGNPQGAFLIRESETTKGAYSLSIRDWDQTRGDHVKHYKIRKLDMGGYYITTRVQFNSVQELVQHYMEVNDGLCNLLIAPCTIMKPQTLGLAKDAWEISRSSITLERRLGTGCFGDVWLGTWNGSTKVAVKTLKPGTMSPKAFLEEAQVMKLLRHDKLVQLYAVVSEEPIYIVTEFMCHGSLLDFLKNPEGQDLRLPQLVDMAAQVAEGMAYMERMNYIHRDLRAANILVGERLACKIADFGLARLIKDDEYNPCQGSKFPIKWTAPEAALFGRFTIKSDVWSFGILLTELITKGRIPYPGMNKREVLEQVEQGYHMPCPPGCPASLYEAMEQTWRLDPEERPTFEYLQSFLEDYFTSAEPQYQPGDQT

Question: How did the IC50 (ABL2/ARG) turn out when `CN1CCN(c2ccc(Nc3ncc4c(n3)S/C(=C/c3ccc([N+](=O)[O-])cc3)C(=O)N4)cc2)CC1` [Compound 1b, (E)-2-(4-(4-Methylpiperazin-1-yl)phenylamino)-7-(4-nitrobenzylidene)-5H-pyrimido[4,5-b][1,4]thiazin-6(7H)-one] was run?
Answer: 30 nM

Question: What about the IC50 (RPIK2) of the same compound?
Answer: 68 nM

Question: What about the IC50 (ABL1) of the same compound?
Answer: 19 nM

Question: And the IC50 (PI3K-δ)?
Answer: 20 nM

Question: And the IC50 (PI3K-α)?
Answer: 13 nM

Question: And the IC50 (FGR)?
Answer: 124 nM

Question: What about the IC50 (ABL1 (M351T)) of the same compound?
Answer: 12 nM

Question: And the IC50 (ABL1 (Q252H))?
Answer: 10 nM

Question: What about the IC50 (ABL1 (E255K)) of the same compound?
Answer: 106 nM

Question: What about the IC50 (ABL1 (H396P)) of the same compound?
Answer: 9 nM

Question: And the IC50 (ABL1 (G250E))?
Answer: 35 nM

Question: And the IC50 (ABL1 (Y253F))?
Answer: 60 nM

Question: And the IC50 (ABL1 (T315I))?
Answer: 2730 nM

Question: And the IC50 (DU145 (prostate cancer))?
Answer: < 1000 nM

Question: What about the IC50 [1] of the same compound?
Answer: < 1000 nM

Question: And the IC50 (PIK3-α)?
Answer: 4 nM

Question: And the IC50 (PIK3-β)?
Answer: 10 nM

Question: And the IC50 (PIK3-γ)?
Answer: 22 nM

Question: And the IC50 (PIK3-δ)?
Answer: 7 nM
